Tested on: 926638-142-R-J1-PDC complex spheroid viability
Assay: Anticancer human tumor 926638-142-R-J1-PDC patient-derived endometrial carcinoma cell line growth inhibition [POLQ]
Conditions: for IC50: curve of first compound; for viability, T/C: stronger effect = lower value
Protocol: Multicellular complex tumor spheroid response to Polymerase (POL) inhibitors (novobiocin, ART-558, RP6685) in combination with a variety of drugs and investigational agents in selected tumor cell lines
The POL inhibitors (novobiocin, ART-558, and RP6685) were evaluated both individually and in combination with standard of care and investigational anticancer small molecules within a complex spheroid model of solid tumors. . Complex spheroids include a stromal component modeled by human endothelial cells (HUVEC) and fibroblasts modeled by human mesenchymal stem cells (MSCs). The concentration ranges selected for each drug and investigational agent were based upon clinically achievable concentrations if the clinical Cmax of the agent was known.
Compounds. The drugs and investigational agents: novobiocin (NSC847541), ART-558 (NSC835418), RP-6685 (NSC848927), peposertib (NSC802822), ceralasertib (NSC780249), elimusertib (NSC800525), camonsertib (NSC841442), AZD-1390 (NSC803789), olaparib (NSC753686), talazoparib (NSC767125), rucaparib (NSC756644), sotorasib (NSC818433), MRTX-1133 (NSC836407), SN-38 (NSC673596), topotecan (NSC609699), epotoside (NSC141540), doxorubicin (NSC123127), gemcitabine (NSC613327), 5-fluorouracil (NSC19893), paclitaxel (NSC125973), vemurafenib (NSC761431), MSA-2 (NSC828583), SN-011 (NSC837082), adavosertib (NSC754352), prexasertib (NSC758257), carboplatin (NSC241240) and oxaliplatin (NSC266046), were obtained from the National Cancer Institute (NCI) Developmental Therapeutics Program Chemical Repository (21). The FDA-approved anticancer drug set is available from the Developmental Therapeutics Program at https://dtp.cancer.gov/organization/dscb/obtaining/. […] The stock solutions were prepared in dimethyl sulfoxide (DMSO, Sigma-Aldrich, St. Louis, MO, cat. D2650), except for the platinum compounds which were prepared in saline (Quality Biological, Gaithersburg, MD, cat. 114-055-101), at 800-fold the tested concentration and stored at -70 degrees C prior to their use. All drugs and investigational agents were tested over a range starting from a high concentration at or near the clinical Cmax and decreasing in half-log increments. If the clinical Cmax for an agent had not been determined, the highest concentration tested was 10 microM, except for SN-38, which was tested at a high concentration of 1 microM.
Cell Culture. All cells were maintained in an incubator at 37 degrees C and 5% CO2 with 95% humidity. The PDC lines were cultured according to standard operating procedures established by the NCI PDMR (https://pdmr.cancer.gov). Table 3 of the manuscript, lists the cell lines along with the number of the three cell types plated to form the mct-spheroids and media for tumor cell growth. After thawing, all PDC lines, except 997537-175-T-J1-PDC and 415267-285-R-J2-PDC, were cultured in Matrigel-coated flasks prepared with a working solution of 1X Ham's F-12 nutrient mix, without supplementation (Thermo Fisher Scientific, cat. 11765054), 100 U/mL penicillin-streptomycin (Thermo Fisher Scientific, cat. 15140122), and 2.5% Matrigel (Corning Inc., Corning, NY, cat. 354248) for the first three passages. The two PDC lines 997537-175-T-J1-PDC and 415267-285-R-J2-PDC were cultured on uncoated flasks. The 857933-349-R-J2-PDC line was cultured in 6C/Colon 1B media containing advanced DMEM/F-12 (Thermo Fisher Scientific, cat. 12634028), 10 mM HEPES (Thermo Fisher Scientific, cat. 15630080), 1X GlutaMAX supplement (Thermo Fisher Scientific, cat. 35050061), 0.1 mg/mL primocin (InvivoGen, San Diego, CA, cat. ant-pm-2), 10% defined fetal bovine serum, heat inactivated (HyClone Laboratories Inc., Logan, UT, cat. SH30070.03HI), 50% L-WRN conditioned media (ATCC, cat. CRL-3276), 1.25 mM N-Acetyl-L-cysteine (Sigma-Aldrich, cat. A9165), 10 mM nicotinamide (Sigma-Aldrich, cat. N0636), 1X B-27 supplement (Thermo Fisher Scientific, cat. 17504044), 1X N-2 supplement (Thermo Fisher Scientific, cat. […]

[1] = second compound 0.0316 µM, first compound 0.0316 µM
[2] = second compound 0.0316 µM, first compound 0.1 µM
[3] = second compound 0.1 µM, first compound 0.0316 µM
[4] = second compound 0.1 µM, first compound 0.1 µM
[5] = second compound 0.316 µM, first compound 0.0316 µM
[6] = second compound 0.316 µM, first compound 0.1 µM
[7] = second compound 1 µM, first compound 0.0316 µM
[8] = second compound 1 µM, first compound 0.1 µM
[9] = second compound 3.16 µM, first compound 0.0316 µM
[10] = second compound 3.16 µM, first compound 0.1 µM
[11] = second compound 10 µM, first compound 0.0316 µM
[12] = second compound 10 µM, first compound 0.1 µM
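Further: spheroids exposed to drugs for one week before readout.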
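Wherever viability, T/C is given: percent viability relative to DMSO vehicle control wells set as 100%.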

`CC[C@@]1(O)C(=O)OCc2c1cc1n(c2=O)Cc2cc3c(CN(C)C)c(O)ccc3nc2-1` + COC1C(OC(N)=O)C(O)C(Oc2ccc3c(O)c(NC(=O)c4ccc(O)c(CC=C(C)C)c4)c(=O)oc3c2C)OC1(C)C showed an IC50 (second compound 0.0316 µM) of over 0.1 µM, an IC50 (second compound 0.1 µM) of 0.0865 µM and an IC50 (second compound 0.316 µM) of over 0.1 µM. The IC50 (second compound 1 µM) was 0.0661 µM, the IC50 (second compound 3.16 µM) was 0.0981 µM and the IC50 (second compound 10 µM) was 0.0795 µM. For the same compound, the viability, T/C (second compound 0.0316 µM, first compound 0.000316 µM) was 102%, the viability, T/C (second compound 0.0316 µM, first compound 0.001 µM) was 92.5% and the viability, T/C (second compound 0.0316 µM, first compound 0.00316 µM) was 85.7%. The viability, T/C (second compound 0.0316 µM, first compound 0.01 µM) was 72.3%, the viability, T/C [1] was 70.9% and the viability, T/C [2] was 47.7%. The viability, T/C (second compound 0.1 µM, first compound 0.000316 µM) was 80.4%, the viability, T/C (second compound 0.1 µM, first compound 0.001 µM) was 105% and the viability, T/C (second compound 0.1 µM, first compound 0.00316 µM) was 80.4%. It also gave a viability, T/C (second compound 0.1 µM, first compound 0.01 µM) of 75.7%, a viability, T/C [3] of 72.1% and a viability, T/C [4] of 46.6%. For the same compound, the viability, T/C (second compound 0.316 µM, first compound 0.000316 µM) was 107%, the viability, T/C (second compound 0.316 µM, first compound 0.001 µM) was 106% and the viability, T/C (second compound 0.316 µM, first compound 0.00316 µM) was 77.9%. For the same compound, the viability, T/C (second compound 0.316 µM, first compound 0.01 µM) was 65.9%, the viability, T/C [5] was 76.2% and the viability, T/C [6] was 54.6%. It also gave a viability, T/C (second compound 1 µM, first compound 0.000316 µM) of 83.4%, a viability, T/C (second compound 1 µM, first compound 0.001 µM) of 70.5% and a viability, T/C (second compound 1 µM, first compound 0.00316 µM) of 75.8%. The viability, T/C (second compound 1 µM, first compound 0.01 µM) was 73.2%, the viability, T/C [7] was 60.8% and the viability, T/C [8] was 43.5%. For the same compound, the viability, T/C (second compound 3.16 µM, first compound 0.000316 µM) was 94.2%, the viability, T/C (second compound 3.16 µM, first compound 0.001 µM) was 93.7% and the viability, T/C (second compound 3.16 µM, first compound 0.00316 µM) was 82.5%. The viability, T/C (second compound 3.16 µM, first compound 0.01 µM) was 83.5%, the viability, T/C [9] was 72.9% and the viability, T/C [10] was 48.6%. The viability, T/C (second compound 10 µM, first compound 0.000316 µM) was 84.8%, the viability, T/C (second compound 10 µM, first compound 0.001 µM) was 88.8% and the viability, T/C (second compound 10 µM, first compound 0.00316 µM) was 81.1%. The viability, T/C (second compound 10 µM, first compound 0.01 µM) was 71.1%, the viability, T/C [11] was 73.8% and the viability, T/C [12] was 44.2%.
Compound `COc1cc(C2c3cc4c(cc3C(OC3OC5COC(C)OC5C(O)C3O)C3COC(=O)C23)OCO4)cc(OC)c1O` (centres undefined) + COC1C(OC(N)=O)C(O)C(Oc2ccc3c(O)c(NC(=O)c4ccc(O)c(CC=C(C)C)c4)c(=O)oc3c2C)OC1(C)C has an IC50 (second compound 0.0316 µM) of over 10 µM, an IC50 (second compound 0.1 µM) of over 10 µM and an IC50 (second compound 0.316 µM) of over 10 µM. The IC50 (second compound 1 µM) was over 10 µM, the IC50 (second compound 3.16 µM) was over 10 µM and the IC50 (second compound 10 µM) was over 10 µM. It also gave a viability, T/C [1] of 86.8%, a viability, T/C [2] of 79% and a viability, T/C (second compound 0.0316 µM, first compound 0.316 µM) of 78.1%. The viability, T/C (second compound 0.0316 µM, first compound 1 µM) was 78.4%, the viability, T/C (second compound 0.0316 µM, first compound 3.16 µM) was 70.1% and the viability, T/C (second compound 0.0316 µM, first compound 10 µM) was 56.2%. For the same compound, the viability, T/C [3] was 95%, the viability, T/C [4] was 80.6% and the viability, T/C (second compound 0.1 µM, first compound 0.316 µM) was 83.1%. For the same compound, the viability, T/C (second compound 0.1 µM, first compound 1 µM) was 62.7%, the viability, T/C (second compound 0.1 µM, first compound 3.16 µM) was 57.5% and the viability, T/C (second compound 0.1 µM, first compound 10 µM) was 57.7%. The viability, T/C [5] was 88.2%, the viability, T/C [6] was 98.7% and the viability, T/C (second compound 0.316 µM, first compound 0.316 µM) was 75.7%. The viability, T/C (second compound 0.316 µM, first compound 1 µM) was 79.3%, the viability, T/C (second compound 0.316 µM, first compound 3.16 µM) was 66% and the viability, T/C (second compound 0.316 µM, first compound 10 µM) was 64.6%. For the same compound, the viability, T/C [7] was 84.1%, the viability, T/C [8] was 85.8% and the viability, T/C (second compound 1 µM, first compound 0.316 µM) was 79%. For the same compound, the viability, T/C (second compound 1 µM, first compound 1 µM) was 61.6%, the viability, T/C (second compound 1 µM, first compound 3.16 µM) was 70.9% and the viability, T/C (second compound 1 µM, first compound 10 µM) was 55.6%. For the same compound, the viability, T/C [9] was 82%, the viability, T/C [10] was 88.4% and the viability, T/C (second compound 3.16 µM, first compound 0.316 µM) was 83.2%. For the same compound, the viability, T/C (second compound 3.16 µM, first compound 1 µM) was 80.2%, the viability, T/C (second compound 3.16 µM, first compound 3.16 µM) was 71.2% and the viability, T/C (second compound 3.16 µM, first compound 10 µM) was 60.9%. It also gave a viability, T/C [11] of 81.8%, a viability, T/C [12] of 75.3% and a viability, T/C (second compound 10 µM, first compound 0.316 µM) of 78.1%. The viability, T/C (second compound 10 µM, first compound 1 µM) was 74.9%, the viability, T/C (second compound 10 µM, first compound 3.16 µM) was 68.8% and the viability, T/C (second compound 10 µM, first compound 10 µM) was 55%.

Source: PubChem BioAssay AID1963826 (Molecular Pharmacology Branch, DTP, NCI, 2024)
